In patent publication US20040115160A1, “Quaternary ammonium esters for disinfection and preservation” (priority 2002, published 2004):
Counter-ions that a name gives are not always drawn. Like-named read-outs stand apart in the source and are kept apart here.

Tests used:
[1] = test system: Candida albicans (ATCC 10231); assay: Stand-alone biocidal test without organic soil; assay type: cell-based; settings: 25 ppm in BBS; for log reduction at 25 ppm: Candida albicans, ATCC10231, without organic soil, read-out: Stand-alone biocidal result (microbial log reduction) C. albicans
Protocol: (§1) A test was conducted to study the microbiocidal efficacy of a solution containing a quaternary ammonium ester of the present invention employing borate buffered saline (BBS). The antimicrobial efficacy of each of the various compositions for the chemical disinfection of contact lenses was evaluated. Microbial challenge inoculums were prepared using Pseudomonas aeruginosa (ATCC 9027), Staphylococcus aureus (ATCC 6538), Serratia marcescens (ATCC 13880), Candida albicans (ATCC 10231) and Fusarium solani (ATCC 36031). The test organisms were cultured on appropriate agar and the cultures were harvested using sterile DPBST (Dulbecco's Phosphate Buffered Saline plus 0.05 percent weight/volume polysorbate 80) or a suitable diluent and transferred to a suitable vessel. Spore suspensions were filtered through sterile glass wool to remove hyphal fragments. Serratia marcescens, as appropriate, was filtered through a 1.2 mμ filter to clarify the suspension. After harvesting, the suspension was centrifuged at no more than 5000×g for a maximum of 30 minutes at 20 to 25° C. The supernatant was poured off and resuspended in DPBST or other suitable diluent. The suspension was centrifuged a second time, and resuspended in DPBST or other suitable diluent. All challenge bacterial and fungal cell suspensions were adjusted with DPBST or other suitable diluent to 1×10^7 to 1×10^8 cfu/ml. The appropriate cell concentration may be estimated by measuring the turbidity of the suspension, for example, using a spectrophotometer at a preselected wavelength, for example 490 nm. One tube was prepared containing a minimum of 10 ml of test solution per challenge organism. Each tube of the solution to be tested was inoculated with a suspension of the test organism sufficient to provide a final count of 1×10^5 to 1×10^6 cfu/ml, the volume of the inoculum not exceeding 1 percent of the sample volume. Dispersion of the inoculum was ensured by vortexing the sample for at least 15 seconds. The inoculated product was stored at 10 to 25° C. Aliquots in the amount of 1.0 ml were taken of the inoculated product for determination of viable counts after certain time periods of disinfection. The time points for the bacteria were, for example, 1, 2, 3 and 4 hours when the proposed regimen soaking time was four hours. Yeast and mold were tested at an additional timepoint of 16 hours (4 times the regimen time). The suspension was mixed well by vortexing vigorously for at least 5 seconds. The 1.0 ml aliquots removed at the specified time intervals were subjected to a suitable series of decimal dilutions in validated neutralizing media. The suspensions were mixed vigorously and incubated for a suitable period of time to allow for neutralization of the microbial agent at room temperature. The viable count of organisms was determined in appropriate dilutions by preparation of triplicate plates of trypticase soy (TSA) agar for bacteria and Sabouraud dextrose agar (SDA) for mold and yeast. The bacterial recovery plates were incubated at 30 to 35° C. for two to four days. The yeast was incubated at 20 to 30° C. for two to four days and mold recovery plates were incubated at 20 to 25° C. for three to seven days. The average number of colony forming units was determined on countable plates. Countable plates refer to 30 to 300 cfu/plates for bacteria and yeast, and 8 to 80 cfu/plate for mold except when colonies are observed only for the 10^0 or 10^−1 dilution plates. The microbial reduction was then calculated at the specified time points. […] Following inoculation in a validated neutralizing broth and incubation for an appropriate period of time, the inoculum control must be between 1.0×10^5 to 1.0×10^6 cfu/ml. […]

[2] = test system: Fusarium solani (ATCC 36031); assay: Stand-alone biocidal test without organic soil; assay type: cell-based; settings: 25 ppm in BBS; for log reduction at 25 ppm: Fusarium solani, ATCC36031, without organic soil, read-out: Stand-alone biocidal result (microbial log reduction) F. solani
Protocol: as §1

[3] = test system: Pseudomonas aeruginosa (ATCC 9027); assay: Stand-alone biocidal test without organic soil; assay type: cell-based; settings: 25 ppm in BBS; for Stand-alone biocidal result (microbial log reduction) P. aeruginosa: without organic soil
Protocol: as §1

[4] = test system: Serratia marcescens (ATCC 13880); assay: Stand-alone biocidal test without organic soil; assay type: cell-based; settings: 25 ppm in BBS; for Stand-alone biocidal result (microbial log reduction) S. marcescens: without organic soil
Protocol: as §1

[5] = test system: Staphylococcus aureus (ATCC 6538); assay: Stand-alone biocidal test without organic soil; assay type: cell-based; settings: 25 ppm in BBS; for Stand-alone biocidal result (microbial log reduction) S. aureus: without organic soil
Protocol: as §1

## CCCCCCCC(=O)OCCC[N+](C)(C)C [Compound 2, N-capryloyloxypropyl-N,N,N-trimethylammonium iodide]
[1]; 1 hr.
  log reduction at 25 ppm: 0
[1]; 4 hr.
  log reduction at 25 ppm: 0.2
[2]; 1 hr.
  log reduction at 25 ppm: 0.1
[2]; 4 hr.
  log reduction at 25 ppm: 0.6
[3]; 1 hr.
  Stand-alone biocidal result (microbial log reduction) P. aeruginosa: TNTC
[3]; 4 hr.
  Stand-alone biocidal result (microbial log reduction) P. aeruginosa: TNTC
[4]; 1 hr.
  Stand-alone biocidal result (microbial log reduction) S. marcescens: TNTC
[4]; 4 hr.
  Stand-alone biocidal result (microbial log reduction) S. marcescens: TNTC
[5]; 1 hr.
  Stand-alone biocidal result (microbial log reduction) S. aureus: TNTC
[5]; 4 hr.
  Stand-alone biocidal result (microbial log reduction) S. aureus: TNTC

## CCCCCCCCCCCCCC(=O)OCCC[N+](C)(C)CCCCC (as salt: iodide) [Compound 11, N-myristoyloxypropyl-N,N-dimethyl-N-pentylammonium iodide]
other
  melting point: 90 to 91 °C

## CCCCCCCCCCCCCC(=O)OCCCN(C)C [N-myristoyloxypropyl-N,B-dimethylamine, reference compound]
[1]
  Effectiveness against C. albicans (stand-alone biocidal data): failed to be effective
[2]
  Effectiveness against F. solani (stand-alone biocidal data): failed to be effective
[3]
  Effectiveness against P. aeruginosa (stand-alone biocidal data): failed to be effective
[4]
  Effectiveness against S. marcescens (stand-alone biocidal data): failed to be effective
[5]
  Effectiveness against S. aureus (stand-alone biocidal data): failed to be effective

## CCCCCCCC(=O)OCCC[N+](C)(C)C (as salt: iodide) [Compound 2, N-capryloyloxypropyl-N,N,N-trimethylammonium iodide]
other
  melting point: 107 to 109 °C

## CCCCCCCCCCCCCC(=O)NCCC[N+](C)(C)C.[I-] [N-myristamidopropyl-N,N,N-trimethylammonium iodide, reference compound]
[1]
  Effectiveness against C. albicans (stand-alone biocidal data): failed
[2]
  Effectiveness against F. solani (stand-alone biocidal data): failed
[3]
  Effectiveness against P. aeruginosa (stand-alone biocidal data): proved effective
[4]
  Effectiveness against S. marcescens (stand-alone biocidal data): failed
[5]
  Effectiveness against S. aureus (stand-alone biocidal data): proved effective

## CCCCCCCCCCCCCC(=O)OCCC[N+](C)(C)C [Compound 5, N-myristoyloxypropyl-N,N,N-trimethylammonium iodide]
[1]; 1 hr.
  log reduction at 25 ppm: 1.9
[1]; 4 hr.
  log reduction at 25 ppm: 3.4
[2]; 1 hr.
  log reduction at 25 ppm: 3.2
[2]; 4 hr.
  log reduction at 25 ppm: 3.3
[3]; 1 hr.
  Stand-alone biocidal result (microbial log reduction) P. aeruginosa: >4.6
[3]; 4 hr.
  Stand-alone biocidal result (microbial log reduction) P. aeruginosa: >4.6
[4]; 1 hr.
  Stand-alone biocidal result (microbial log reduction) S. marcescens: 3.4
[4]; 4 hr.
  Stand-alone biocidal result (microbial log reduction) S. marcescens: >4.6
[5]; 1 hr.
  Stand-alone biocidal result (microbial log reduction) S. aureus: >4.7
[5]; 4 hr.
  Stand-alone biocidal result (microbial log reduction) S. aureus: >4.7

## CCCCCCCCCCCCCC(=O)OCCC[N+](C)(C)CCCC [Compound 10, N-myristoyloxypropyl-N-butyl-N,N-dimethylammonium iodide]
[1]; 1 hr.
  log reduction at 25 ppm: 4.5
[1]; 4 hr.
  log reduction at 25 ppm: > 4.8
[2]; 1 hr.
  log reduction at 25 ppm: > 4.5
[2]; 4 hr.
  log reduction at 25 ppm: > 4.5
[3]; 1 hr.
  Stand-alone biocidal result (microbial log reduction) P. aeruginosa: >4.7
[3]; 4 hr.
  Stand-alone biocidal result (microbial log reduction) P. aeruginosa: 4.7
[4]; 1 hr.
  Stand-alone biocidal result (microbial log reduction) S. marcescens: 3.8
[4]; 4 hr.
  Stand-alone biocidal result (microbial log reduction) S. marcescens: >4.8
[5]; 1 hr.
  Stand-alone biocidal result (microbial log reduction) S. aureus: >4.8
[5]; 4 hr.
  Stand-alone biocidal result (microbial log reduction) S. aureus: >4.8

## CCCCCCCCCCCCCCCCCC(=O)OCCC[N+](C)(C)C [Compound 7, N-stearoyloxypropyl-N,N,N-trimethylammonium iodide]
[1]; 1 hr.
  log reduction at 25 ppm: 0.7
[1]; 4 hr.
  log reduction at 25 ppm: 2.5
[2]; 1 hr.
  log reduction at 25 ppm: 2.9
[2]; 4 hr.
  log reduction at 25 ppm: 3.5
[3]; 1 hr.
  Stand-alone biocidal result (microbial log reduction) P. aeruginosa: 2.0
[3]; 4 hr.
  Stand-alone biocidal result (microbial log reduction) P. aeruginosa: 3.3
[4]; 1 hr.
  Stand-alone biocidal result (microbial log reduction) S. marcescens: TNTC
[4]; 4 hr.
  Stand-alone biocidal result (microbial log reduction) S. marcescens: TNTC
[5]; 1 hr.
  Stand-alone biocidal result (microbial log reduction) S. aureus: 3.5
[5]; 4 hr.
  Stand-alone biocidal result (microbial log reduction) S. aureus: >4.8

## CCCCCCCCCCCCCC(=O)OCCC[N+](C)(C)CCCCCCCCCC [Compound 13, N-myristoyloxypropyl-N-decyl-N,N-dimethylammonium iodide]
[1]; 1 hr.
  log reduction at 25 ppm: 0.5
[1]; 4 hr.
  log reduction at 25 ppm: 1.2
[2]; 1 hr.
  log reduction at 25 ppm: 1.5
[2]; 4 hr.
  log reduction at 25 ppm: 3.1
[3]; 1 hr.
  Stand-alone biocidal result (microbial log reduction) P. aeruginosa: 3.5
[3]; 4 hr.
  Stand-alone biocidal result (microbial log reduction) P. aeruginosa: 4.7
[4]; 1 hr.
  Stand-alone biocidal result (microbial log reduction) S. marcescens: TNTC
[4]; 4 hr.
  Stand-alone biocidal result (microbial log reduction) S. marcescens: 2.9
[5]; 1 hr.
  Stand-alone biocidal result (microbial log reduction) S. aureus: 3.8
[5]; 4 hr.
  Stand-alone biocidal result (microbial log reduction) S. aureus: 4.8

## CCCCCCCCCCCCCC(=O)NCCCN(C)C [N-myristamidopropyl-N,N-dimethylamine, reference compound]
[1]
  Effectiveness against C. albicans (stand-alone biocidal data): effective
[2]
  Effectiveness against F. solani (stand-alone biocidal data): effective
[3]
  Effectiveness against P. aeruginosa (stand-alone biocidal data): effective
[4]
  Effectiveness against S. marcescens (stand-alone biocidal data): not effective
[5]
  Effectiveness against S. aureus (stand-alone biocidal data): effective

## CCCCCCCCCCCC(=O)OCCC[N+](C)(C)C [Compound 4, N-lauroyloxypropyl-N,N,N-trimethylammonium iodide]
[1]; 1 hr.
  log reduction at 25 ppm: 0
[1]; 4 hr.
  log reduction at 25 ppm: 0.1
[2]; 1 hr.
  log reduction at 25 ppm: 0.1
[2]; 4 hr.
  log reduction at 25 ppm: 0.6
[3]; 1 hr.
  Stand-alone biocidal result (microbial log reduction) P. aeruginosa: 2.0
[3]; 4 hr.
  Stand-alone biocidal result (microbial log reduction) P. aeruginosa: 3.0
[4]; 1 hr.
  Stand-alone biocidal result (microbial log reduction) S. marcescens: TNTC
[4]; 4 hr.
  Stand-alone biocidal result (microbial log reduction) S. marcescens: TNTC
[5]; 1 hr.
  Stand-alone biocidal result (microbial log reduction) S. aureus: TNTC
[5]; 4 hr.
  Stand-alone biocidal result (microbial log reduction) S. aureus: TNTC

## CCCCCCCCCCCCCC(=O)OCCOCC[N+](C)(C)C [Compound 15, N-myristoyloxyethoxyethyl-N,N,N-trimethylammonium iodide]
[1]; 1 hr.
  log reduction at 25 ppm: 3.6
[1]; 4 hr.
  log reduction at 25 ppm: 4.6
[2]; 1 hr.
  log reduction at 25 ppm: 3.8
[2]; 4 hr.
  log reduction at 25 ppm: 4.1
[3]; 1 hr.
  Stand-alone biocidal result (microbial log reduction) P. aeruginosa: >4.7
[3]; 4 hr.
  Stand-alone biocidal result (microbial log reduction) P. aeruginosa: >4.7
[4]; 1 hr.
  Stand-alone biocidal result (microbial log reduction) S. marcescens: 3.8
[4]; 4 hr.
  Stand-alone biocidal result (microbial log reduction) S. marcescens: >4.8
[5]; 1 hr.
  Stand-alone biocidal result (microbial log reduction) S. aureus: >4.8
[5]; 4 hr.
  Stand-alone biocidal result (microbial log reduction) S. aureus: >4.8
